Test system: TGFβ signal
Test: TGFβ signal inhibitory activity, (SBE)4-Luc reporter in A549 cells (Test Examples 1A and 1B)
Assay type: cell-based, human
Details: Homo sapiens, A549, TGFβ-1 2 ng/ml, 4 hr, Table 1A, read-out: TGFβ inhibition rate, %; for inhibition at 3 µM: test compound 3 µM; for inhibition at 10 µM: test compound 10 µM
How it was run: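 Compounds at 3 µM and 10 µM (some 1 µM) were added with 2 ng/ml TGFβ-1 to A549 cells stably expressing an SBE-driven luciferase, then cultured 4 hr. Chemiluminescent luciferase signal gave % inhibition versus TGFβ-alone and no-TGFβ controls.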

SMILES | inhibition at 3 µM | inhibition at 10 µM
COC(=O)c1cc2c(Oc3cc4cccnc4nc3-c3ccccc3)ccnc2cc1Cl [Compound 148, Methyl 7-chloro-4-(2-phenyl-[1,8]naphthyridin-3-yloxy)-quinoline-6-carboxylate] | 58% | 98%
COc1cc2nccc(Oc3cc(C)c(C)nc3-c3ccccn3)c2cc1NCCO [Compound 154, 2-[4-(5,6-Dimethyl-[2,2']bipyridinyl-3-yloxy)-7-methoxy-quinolin-6-ylamino]-ethanol] | 99% | 100%
COc1cc2nccc(Oc3cc(C)c(C)nc3-c3ccccn3)c2cc1-c1cccnc1 [Compound 155, 3-(7-Methoxy-6-pyridin-3-yl-quinotin-4-yloxy)-5,6-dimethyl-[2,2']bipyridine] | 99% | 100%
Cc1cc(Oc2ccnc3ccc(Cl)cc23)c(-c2ccccn2)nc1C [Compound 156, 3-(6-Chloro-quinolin-4-yloxy)-5,6-dimethyl-[2,2']bipyridine] | 100% | 100%
Cc1ccc2nccc(Oc3cc(C)c(C)nc3-c3ccccn3)c2c1 [Compound 157, 5,6-Dimethyl-3-(6-methyl-quinolin-4-yloxy)-[2,2']bipyridine] | 99% | 100%
COc1cc2nccc(Oc3cc(C)c(C)nc3-c3ncccn3)c2cc1F [Compound 158, 4-(5,6-Dimethyl-2-pyrimidin-2-yl-pyridin-3-yloxy)-6-fluoro-7-methoxy-quinoline] | 98% | 100%
COc1cc2nccc(Oc3cc4cccnc4nc3C)c2cc1F [Compound 160, 3-(6-Fluoro-7-methoxy-quinolin-4-yloxy)-2-methyl-[1,8]naphthyridine] | 56% | 87%
CCc1nc2ncccc2cc1Oc1ccnc2cc(OC)c(F)cc12 [Compound 161, 2-Ethyl-3-(6-fluoro-7-methoxy-qulnolin-4-yloxy)-[1,8]naphthyridine] | 68% | 95%
CCc1ccc(Oc2ccnc3cc(OC)c(F)cc23)c(-c2ccccn2)n1 [Compound 162, 6-Ethyl-3-(6-fluoro-7-methoxy-quinolin-4-yloxy)-[2,2']bipyridine] | 100% | 100%
Cc1cc(Oc2ccnc3ccc(-c4ccsc4)cc23)c(-c2ccccn2)nc1C [Compound 163, 5,6-Dimethyl-3-(6-thiophen-3-yl-quinolin-4-yloxy)-[2,2']bipyridine] | 92% | 100%
Cc1cc(Oc2ccnc3ccc(-c4csc5ccccc45)cc23)c(-c2ccccn2)nc1C [Compound 164, 3-(6-Benzo[b]thiophen-3-yl-quinolin-4-yloxy)-5,6-dimethyl-[2,2']bipyridine] | 75% | 100%
Cc1ccc(-c2ccc3nccc(Oc4cc(C)c(C)nc4-c4ccccn4)c3c2)s1 [Compound 165, 5,6-Dimethyl-3-[6-(5-methyl-thiophen-2-yl)-quinolin-4-yloxy]-[2,2']bipyridine] | 90% | 100%
Cc1cc(Oc2ccnc3ccc(-c4cc5ccccc5o4)cc23)c(-c2ccccn2)nc1C [Compound 166, 3-(6-Benzofuran-2-yl-quinolin-4-yloxy)-5,6-dimethyl-[2,2']bipyridine] | 78% | 100%
Cc1cc(Oc2ccnc3ccc(-c4cccn4C(=O)OC(C)(C)C)cc23)c(-c2ccccn2)nc1C [Compound 167, 2-[4-(5,6-Dimethyl-[2,2']bipyridinyl-3-yloxy)-quinolin-6-yl]-pyrrole-1-carboxylate tert-butyl ester] | 35% | 85%
Cc1cc(Oc2ccnc3ccc(-c4ccc[nH]4)cc23)c(-c2ccccn2)nc1C [Compound 168, 5,6-Dimethyl-3-[6-(1H-pyrrol-2-yl)-quinolin-4-yloxy]-[2,2']bipyridine] | 92% | 100%
Cc1cc(Oc2ccnc3ccc(-c4cn[nH]c4)cc23)c(-c2ccccn2)nc1C [Compound 169, 5,6-Dimethyl-3-[6-(1H-pyrazol-4-yl)-quinolin-4-yloxy]-[2,2']bipyridine] | 100% | 100%
Cc1cc2nccc(Oc3cc(C)c(C)nc3-c3ccccn3)c2cc1C [Compound 170, 3-(6,7-Dimethyl-quinolin-4-yloxy)-5,6-dimethyl-[2,2']bipyridine] | 98% | 100%
Cc1cc(Oc2ccnc3cc(-c4ccsc4)ccc23)c(-c2ccccn2)nc1C [Compound 171, 5,6-Dimethyl-3-(7-thioahen-3-yl-quinolin-4-yloxy)-[2,2']bipyridine] | 100% | 100%
Cc1cc(Oc2ccnc3cc(-c4csc5ccccc45)ccc23)c(-c2ccccn2)nc1C [Compound 172, 3-(7-Benzo[b]thiophen-3-yl-quinolin-4-yloxy)-5,6-dimethyl-[2,2']bipyridine] | 49% | 90%

SMILES | inhibition at 3 µM | inhibition at 10 µM
Cc1cc(Oc2ccnc3cc(-c4cc5ccccc5o4)ccc23)c(-c2ccccn2)nc1C [Compound 173, 3-(7-Benzofuran-2-yl-quinolin-4-yloxy)-5,6-dimethyl-[2,2']bipyridine] | 57% | 92%
Cc1cc(Oc2ccnc3ccc(-c4ccccn4)cc23)c(-c2ccccn2)nc1C [Compound 174, 5,6-Dimethyl-3-(6-pyridin-2-yl-quinolin-4-yloxy)-[2,2']bipyridine] | 89% | 100%
Cc1cc(Oc2ccnc3ccc(-c4ncccn4)cc23)c(-c2ccccn2)nc1C [Compound 175, 5,6-Dimethyl-3-(6-pyrimidin-2-yl-quinolin-4-yloxy)-[2,2']bipyridine] | 97% | 100%
Cc1cc(Oc2ccnc3cc(-c4ccccn4)ccc23)c(-c2ccccn2)nc1C [Compound 176, 5,6-Dimethyl-3-(7-pyridin-2-yl-quinolin-4-yloxy)-[2,2']bipyridine] | 99% | 100%
Cc1cc(Oc2ccnc3cc(-c4ncccn4)ccc23)c(-c2ccccn2)nc1C [Compound 177, 5,6-Dimethyl-3-(7-pyrimidin-2-yl-quinolin-4-yloxy)-[2,2']blpyridine] | 98% | 100%
COc1cc2c(Oc3cc4cccnc4nc3-c3ccccc3)ccnc2cc1OCCO [Compound 178, 2-[6-Methoxy-4-(2-phenyl-[1,8]naphthyridin-3-yloxy)-quinolin-7-yloxy]-ethanol] | 100% | 100%
CCc1ccc(Oc2ccnc3cc(C(C)(C)C)sc23)c(-c2ccccn2)n1 [Compound 180, 3-(2-Tert-butyl-thieno[3,2-b]pyridin-7-yloxy)-6-ethyl-[2,2']bipyridine] | 74% | 98%
CCc1ccc(Oc2ccnc3ccc(OCc4ccccc4)cc23)c(-c2ccccn2)n1 [Compound 183, 3-(6-Benzyloxy-quinolin-4-yloxy)-6-ethyl-[2,2']bipyridine] | 100% | 100%
CCc1ccc(Oc2ccnc3cc(C(N)=O)c(Cl)cc23)c(-c2ccccn2)n1 [Compound 185, 6-Chloro-4-(6-ethyl-[2,2']bipyridinyl-3-yloxy)-quinoline-7-carboxylic acid amide] | 96% | 100%
COc1cc2nccc(Oc3ccc(C)nc3-c3ncccn3)c2cc1OC [Compound 188, 4-(6-Methyl-2-pyrimidin-2-yl-pyridin-3-yloxy)-6,7-dimethoxy-quinoline] | 100% | 100%
CCCNC(=O)NCCOc1ccc2nccc(Oc3ccc(CC)nc3-c3ccccn3)c2c1 [Compound 189, 1-{2-[4-(6-Ethyl-[2,2']bipyridinyl-3-yloxy)-quinolin-6-yloxy]-ethyl}-3-propyl-urea] | 97% | 99%
CCc1ccc(Oc2ccnc3ccc(OCc4ccccc4)cc23)c(-c2ncccn2)n1 [Compound 190, 6-Benzyloxy-4-(6-ethyl-2-pyrimidin-2-yl-pyridin-3-yloxy)-quinoline] | 100% | 100%
CCc1ccc(Oc2ccnc3ccc(O)cc23)c(-c2ncccn2)n1 [Compound 191, 4-(6-Ethyl-2-pyrimidin-2-yl-pyridin-3-yloxy)-quinolin-6-ol] | 99% | 100%
CCc1ccc(Oc2ccnc3cc(C(N)=O)c(OCc4ccccc4)cc23)c(-c2ncccn2)n1 [Compound 193, 6-Benzyloxy-4-(6-ethyl-2-pyrimidin-2-yl-pyridin-3-yloxy)-quinoline-7-carboxylic acid amide] | 80% | 
CCc1ccc(Oc2ccnc3ccc(OCCNS(C)(=O)=O)cc23)c(-c2ncccn2)n1 [Compound 203, N-{2-[4-(6-Ethyl-2-pyrimidin-2-yl-pyridin-3-yloxy)-quinolin-6-yloxy]-ethyl}-methanesulfonic acid amide] | 79% | 
CCc1ccc(Oc2ccnc3ccc(OCCOC(=O)C(C)(C)C)cc23)c(-c2ncccn2)n1 [Compound 207, 2-[4-(6-Ethyl-2-pyrimidin-2-yl-pyridin-3-yloxy)-quinolin-6-yloxy]-ethyl 2,2-dimethyl-propanate] | 93% | 
CCc1ccc(Oc2ccnc3ccc(OCCOC(=O)[C@@H](N)C(C)C)cc23)c(-c2ncccn2)n1 [Compound 208, 2-[4-(6-Ethyl-2-pyrimidin-2-yl-pyridin-3-yloxy)-quinolin-6-yloxy]-ethyl (S)-2-amino-3-methyl-butanoate] | 75% | 
Cc1ccc(Oc2ccnc3ccc(OCCN4CCOCC4)cc23)c(-c2ncccn2)n1 [Compound 209, 4-(6-Methyl-2-pyrimidin-2-yl-pyridin-3-yloxy)-6-(2-morpholin-4--yl-ethoxy)-quinoline] | 54% | 

From patent EP1724268A1, “COMPOUND HAVING TGF-BETA INHIBITORY ACTIVITY AND PHARMACEUTICAL COMPOSITION CONTAINING SAME” (KIRIN BEER KABUSHIKI KAISHA, priority 2004, dated 2005)
